Reference: patent US5104875A, “Combination preparations containing rifampicin and thioacetazon” (priority 1989, dated 1992)
Where two headings read alike, the source gives them in different places.

Legend:
[1] = test system: M.tuberculosis H37Rv; assay: chess-board titration, growth inhibition; type: cell-based
[2] = test system: RMP-resistant patient strain M. avium BK; assay: chess-board titration, growth inhibition; type: cell-based;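 further: +++ means growth as in control and minus means complete inhibition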
[3] = test system: mycobacteria of the avium complex, patient Sa; assay: MIC alone and in combination; type: cell-based; details: Homo sapiens, single
[4] = test system: mycobacteria of the avium complex, patient Me; assay: MIC alone and in combination; type: cell-based; details: Homo sapiens, single
[5] = test system: mycobacteria of the avium complex, patient Ku; assay: MIC alone and in combination; type: cell-based; details: Homo sapiens, single
[6] = test system: mycobacteria of the avium complex, patient Wi; assay: MIC alone and in combination; type: cell-based; details: Homo sapiens, single
[7] = test system: mycobacteria of the avium complex, patient Vo; assay: MIC alone and in combination; type: cell-based; details: Homo sapiens, single
[8] = test system: mycobacteria of the avium complex, patient Bi; assay: MIC alone and in combination; type: cell-based; details: Homo sapiens, single
[9] = test system: mycobacteria of the avium complex, patient Ma; assay: MIC alone and in combination; type: cell-based; details: Homo sapiens, single
[10] = test system: mycobacteria of the avium complex, patient Ka-B; assay: MIC alone and in combination; type: cell-based; details: Homo sapiens, single
[11] = test system: mycobacteria of the avium complex, patient two; assay: MIC alone and in combination; type: cell-based; details: Homo sapiens, single
[12] = test system: mycobacteria of the avium complex, patient one; assay: MIC alone and in combination; type: cell-based; details: Homo sapiens, single
[13] = test system: mycobacteria of the MOTT-complex; assay: effect when administered alone; details: administered alone (cf. Example 2, Table 2 and Table 5)
[14] = test system: M. avium 227; assay: MIC of the individual substances
Experimental: (§1) The bacteria were cultivated in a liquid nutrient medium according to Lockemann (cf. "Nachweisverfahren fur Mykobakterien aus Untersuchungsmaterial, III, Nahrbodenrezepte zur Kultur von Tuberkulosebakterien, 1978, Publisher: Deutsches Zentralkomitee zur Bekampfung der Tuberkulose, Poppenhusenstrasse 14c, 2000 Hamburg 60) enriched with 0.5 % albumin and 1 % human serum. In each case 5×10^-3 to 5 ×10^-5 mg, referred to the weight in wet state, of the mycobacteria strains were incubated in 2 ml of the culture liquid at 37° C. with graded concentrations of RMP and Thz. Readings were taken from the culture tubes after 8 to 15 days.
(§2) The MIC is the concentration of the growth inhibitor in μg/ml, at which no multiplication of the seeded cells can be established.

[15] = test system: M. avium Ro; assay: MIC of the individual substances; details: for MIC: single substance
Experimental: as §1, §2

[16] = test system: M. avium Dan; assay: MIC of the individual substances; details: for MIC: single substance
Experimental: as §1, §2

[17] = test system: M. avium Bi; assay: MIC of the individual substances; details: single substance
Experimental: as §1, §2

[18] = test system: mycobacteria; details: administered alone in acceptable doses; cited from earlier work
[19] = higher doses; cited from earlier work
[20] = Mycobacterium avium, 227, read-out: average inhibiting concentration alone

## CO[C@H]1/C=C/O[C@@]2(C)Oc3c(C)c(O)c4c(O)c(c(/C=N/N5CCN(C)CC5)c(O)c4c3C2=O)NC(=O)/C(C)=C\C=C\[C@H](C)[C@H](O)[C@@H](C)[C@@H](O)[C@@H](C)[C@H](OC(C)=O)[C@@H]1C [RMP, rifampicin]
[1]; Rifampicin .006 ug/ml, Thioacetazon 0
  growth inhibition: +++
[1]; Rifampicin .012 ug/ml, Thioacetazon 0
  growth inhibition: +++
[1]; Rifampicin .018 ug/ml, Thioacetazon 0
  growth inhibition: +++
[1]; Rifampicin .024 ug/ml, Thioacetazon 0
  growth inhibition: +++
[1]; Rifampicin .030 ug/ml, Thioacetazon 0
  growth inhibition: ++
[1]; Rifampicin .036 ug/ml, Thioacetazon 0
  growth inhibition: +
[1]; Rifampicin .042 ug/ml, Thioacetazon 0
  growth inhibition: +
[1]; Rifampicin .048 ug/ml, Thioacetazon 0
  growth inhibition: +
[1]; Rifampicin .054 ug/ml, Thioacetazon 0
  growth inhibition: -
[1]; Rifampicin .06 ug/ml, Thioacetazon 0
  growth inhibition: -
[2]; Rifampicin 0.8 ug/ml, Thioacetazon 0.000
  growth inhibition: +++
[2]; Rifampicin 1.6 ug/ml, Thioacetazon 0.000
  growth inhibition: +++
[2]; Rifampicin 2.4 ug/ml, Thioacetazon 0.000
  growth inhibition: ++
[2]; Rifampicin 3.2 ug/ml, Thioacetazon 0.000
  growth inhibition: ++
[2]; Rifampicin 4 ug/ml, Thioacetazon 0.000
  growth inhibition: -
[2]; Rifampicin 4.8 ug/ml, Thioacetazon 0.000
  growth inhibition: -
[2]; Rifampicin 5.4 ug/ml, Thioacetazon 0.000
  growth inhibition: -
[2]; Rifampicin 6.4 ug/ml, Thioacetazon 0.000
  growth inhibition: -
[2]; Rifampicin 7.2 ug/ml, Thioacetazon 0.000
  growth inhibition: -
[2]; Rifampicin 8 ug/ml, Thioacetazon 0.000
  growth inhibition: -
[3]
  MIC: 8 µg/mL
[4]
  MIC: 16 µg/mL
[5]
  MIC: 32 µg/mL
[6]
  MIC: > 32 µg/mL
[7]
  MIC: 16 µg/mL
[8]
  MIC: 4 µg/mL
[9]
  MIC: > 32 µg/mL
[10]
  MIC: > 32 µg/mL
[11]
  MIC: 32 µg/mL
[12]
  MIC: > 32 µg/mL
[13]
  effect against the mycobacteria of the MOTT-complex: no effect or only a slight effect
[14]; M. avium 227, single substance
  MIC: 8 µg/mL
[14]; [20]
  MIC: 8 µg/mL
[15]
  resistance: completely resistant
  MIC: > 32 µg/mL
[16]
  MIC: 16 µg/mL
[17]
  MIC: 3 µg/mL

## CC[C@@H](CO)NCCN[C@@H](CC)CO [EMB, ethambutol]
[3]
  MIC: > 32 µg/mL
[4]
  MIC: 8 µg/mL
[5]
  MIC: > 32 µg/mL
[6]
  MIC: > 32 µg/mL
[7]
  MIC: 4 to 8 µg/mL
[8]
  MIC: 4 µg/mL
[9]
  MIC: 32 µg/mL
[10]
  MIC: > 32 µg/mL
[11]
  MIC: 16 to 32 µg/mL
[12]
  MIC: > 32 µg/mL

## CC(=O)Nc1ccc(C=NNC(N)=S)cc1 [Thz, thioacetazon]
[1]; Thioacetazon .05 ug/ml, Rifampicin 0
  growth inhibition: +++
[1]; Thioacetazon .10 ug/ml, Rifampicin 0
  growth inhibition: +++
[1]; Thioacetazon .15 ug/ml, Rifampicin 0
  growth inhibition: +++
[1]; Thioacetazon .20 ug/ml, Rifampicin 0
  growth inhibition: +++
[1]; Thioacetazon .25 ug/ml, Rifampicin 0
  growth inhibition: +++
[1]; Thioacetazon .30 ug/ml, Rifampicin 0
  growth inhibition: +++
[1]; Thioacetazon .35 ug/ml, Rifampicin 0
  growth inhibition: +++
[1]; Thioacetazon .40 ug/ml, Rifampicin 0
  growth inhibition: + ++
[1]; Thioacetazon .45 ug/ml, Rifampicin 0
  growth inhibition: +++
[1]; Thioacetazon .50 ug/ml, Rifampicin 0
  growth inhibition: +++
[2]; Thioacetazon 0.8 ug/ml, Rifampicin 0
  growth inhibition: +++
[2]; Thioacetazon 1.6 ug/ml, Rifampicin 0
  growth inhibition: +++
[2]; Thioacetazon 2.4 ug/ml, Rifampicin 0
  growth inhibition: ++
[2]; Thioacetazon 3.2 ug/ml, Rifampicin 0
  growth inhibition: ++
[2]; Thioacetazon 4 ug/ml, Rifampicin 0
  growth inhibition: ++
[2]; Thioacetazon 4.8 ug/ml, Rifampicin 0
  growth inhibition: ++
[2]; Thioacetazon 5.6 ug/ml, Rifampicin 0
  growth inhibition: +
[2]; Thioacetazon 6.4 ug/ml, Rifampicin 0
  growth inhibition: +
[2]; Thioacetazon 7.2 ug/ml, Rifampicin 0
  growth inhibition: +
[2]; Thioacetazon 8 ug/ml, Rifampicin 0
  growth inhibition: +
[3]
  MIC: 32 µg/mL
[4]
  MIC: 32 µg/mL
[5]
  MIC: 32 µg/mL
[6]
  MIC: 32 µg/mL
[7]
  MIC: 32 µg/mL
[8]
  MIC: > 32 µg/mL
[9]
  MIC: > 32 µg/mL
[10]
  MIC: > 32 µg/mL
[11]
  MIC: 32 µg/mL
[12]
  MIC: 16 µg/mL
[18]
  anti-mycobacterial effect: only of weak effect
[19]
  undesirable side-effects: can lead to undesirable side-effects in higher doses
[14]; M. avium 227, single substance
  MIC: 32 µg/mL
[14]; [20]
  MIC: 32 µg/mL
[15]
  resistance: completely resistant
  MIC: > 32 µg/mL
[16]
  resistance: resistant
  MIC: > 32 µg/mL
[17]
  MIC: 3 µg/mL

## NNC(=O)c1ccncc1 [INH, isonicotinic acid hydrazide]
[3]
  MIC: 32 µg/mL
[4]
  MIC: 16 µg/mL
[5]
  MIC: 4 µg/mL
[6]
  MIC: 16 µg/mL
[7]
  MIC: 8 µg/mL
[8]
  MIC: > 32 µg/mL
[9]
  MIC: > 32 µg/mL
[10]
  MIC: 32 µg/mL
[11]
  MIC: 16 µg/mL
[12]
  MIC: 4 µg/mL
